According to US20040209318A1, “Reagents and methods for the detection and quantification of vancomycin in bilogical fluids” (priority 1995, published 2004):

How the values were obtained:
[1] = tested on: sheep polyclonal antibodies against vancomycin; assay: commercially available Abbott Vancomycin assay (TDX/TDXFLX FPIA), cross reactivity; format: binding; details: for COMMERCIAL ASSAY VALUES / COMMERCIAL ASSAY cross reactivity: 0 ug/mL vancomycin
Excerpt: Commercially available fluorescent polarization assays (FPIA) for vancomycin are available. For instance, commercially available assays (Abbott […]® assays, (hereinafter referred to as the “commercially available Abbott Vancomycin assays(s)”)) include reagents for the quantitative measurement of vancomycin in serum or plasma samples. These assays use a vancomycin derivative labeled with a dichlorotriazinylaminofluorescein (DTAF) (hereinafter referred to as the “commercially available tracer”), and sheep polyclonal antibodies against vancomycin (hereinafter referred to as “commercially available antibodies”). […] In contrast, the commercially available vancomycin assay has elevated levels of CDP-I cross reactivity ranging from 39.58% to 65% with or without vancomycin present. […] (Refer to Table 3 for CDP-I cross-reactivity data.)

[2] = tested on: monoclonal antibody #15-109-592; assay: Fluorescence polarization immunoassay of the present invention, cross reactivity; format: binding, mouse; details: for PRESENT INVENTION VALUES / PRESENT INVENTION cross reactivity: 0 ug/mL vancomycin
[3] = biological target: anti-vancomycin Fab fragment; assay: BIAcore solution competition, equilibrium dissociation constant; format: binding, mouse; details: in solution, 20 nM Fab fragment; read-out: Equilibrium Dissociation Constant (KD)
Description: Biosensor surfaces were regenerated after each injection with successive 1 minute pulses of 6 M, 6M, and 1.5 M guanidine hydrochloride. Initial rates of binding of anti-vancomycin Fab fragment to the biosensor surface were measured over a 15 second window beginning 20 seconds postinjection. Data was evaluated by non-linear regression analysis using the solution affinity model built into BIAevaluation 3.0 software (BIAcore, Inc).
The binding affinities of several vancomycin analogs and tracers for anti-vancomycin Fab fragment were determined from solution competition experiments carried out on a BIAcore 2000. Initially, known concentrations of anti-vancomycin Fab fragment (0-22 nM) were injected over the aminoalkyl vancomycin biosensor surface. The initial rate of binding for each anti-vancomycin Fab fragment concentration was obtained by averaging the observed binding rate over a […] window beginning 20 seconds post injection. Data from the first 20 seconds of each sensorgram were omitted due to sample dispersion effects at the start of injections. A plot of initial binding rate versus concentration of anti-vancomycin Fab fragment was fit using a 4-parameter logistic (general model in BIAevaluation 3.0) providing a standard curve. […] A fixed concentration of anti-vancomycin Fab fragment (20 nM) was then mixed with twelve concentrations of each vancomycin analog or tracer and allowed to reach equilibrium. The equilibrium mixtures were individually injected over the aminoalkyl vancomycin biosensor surface, and the concentration of free anti-vancomycin Fab fragment remaining was quantitated by determination of the initial rate of binding to the biosensor surface as described above. A plot of free anti-vancomycin Fab fragment versus total concentration of added analog or tracer provides a competition curve. […] The data points represent the experimentally determined concentrations of free anti-vancomycin Fab fragment in equilibrium solutions at a given concentration of soluble analog or tracer. The curves represent the best nonlinear fit of the data using equation 1 (solution affinity model in BIAevaluation software) below: [formula]
where Fabτ is the concentration of free anti-vancomycin Fab fragment in equilibrium solutions, Fabτ is the total concentration of anti-vancomycin Fab fragment in solution (20 nM), A is the total concentration of added vancomycin analog or tracer, and KD is the equilibrium dissociation constant for the binding of the vancomycin analog or tracer to anti-vancomycin Fab fragment in solution.

[4] = 40 ug/mL vancomycin, 1 ug/mL CDP-I
[5] = 40 ug/mL vancomycin, 10 ug/mL CDP-I
[6] = 40 ug/mL vancomycin, 50 ug/mL CDP-I
[7] = 40 ug/mL vancomycin, 100 ug/mL CDP-I
[8] = 80 ug/mL vancomycin, 1 ug/mL CDP-I
[9] = 80 ug/mL vancomycin, 10 ug/mL CDP-I
[10] = 80 ug/mL vancomycin, 50 ug/mL CDP-I
[11] = 80 ug/mL vancomycin, 100 ug/mL CDP-I

CNC(CC(C)C)C(=O)NC1C(=O)NC(C(=O)O)CC(=O)NC2C(=O)NC3C(=O)NC(C(=O)NC(C(=O)O)c4cc(O)cc(O)c4-c4cc3ccc4O)C(O)c3ccc(c(Cl)c3)Oc3cc2cc(c3OC2OC(CO)C(O)C(O)C2OC2CC(C)(N)C(O)C(C)O2)Oc2ccc(cc2Cl)C1O (stereo not shown) [CDP-I, Crystalline Degradation Product I]
COMMERCIAL ASSAY VALUES ([1]; CDP-I 1 ug/mL): 0.92 µg/mL | COMMERCIAL ASSAY cross reactivity ([1]; CDP-I 1 ug/mL): N.D. (Less than sensitivity at 2.00 ug/mL vancomycin) | COMMERCIAL ASSAY VALUES ([1]; CDP-I 2.5 ug/mL): 1.61 µg/mL | COMMERCIAL ASSAY cross reactivity ([1]; CDP-I 2.5 ug/mL): N.D. (Less than sensitivity at 2.00 ug/mL vancomycin) | COMMERCIAL ASSAY VALUES ([1]; CDP-I 5 ug/mL): 3.25 µg/mL | COMMERCIAL ASSAY cross reactivity ([1]; CDP-I 5 ug/mL): 65% | COMMERCIAL ASSAY VALUES ([1]; CDP-I 7 ug/mL): 4.54 µg/mL | COMMERCIAL ASSAY cross reactivity ([1]; CDP-I 7 ug/mL): 64.86% | COMMERCIAL ASSAY VALUES ([1]; CDP-I 10 ug/mL): 6.42 µg/mL | COMMERCIAL ASSAY cross reactivity ([1]; CDP-I 10 ug/mL): 64.2% | COMMERCIAL ASSAY VALUES ([1]; CDP-I 15 ug/mL): 8.87 µg/mL | COMMERCIAL ASSAY cross reactivity ([1]; CDP-I 15 ug/mL): 59.13% | COMMERCIAL ASSAY VALUES ([1]; CDP-I 20 ug/mL): 11.04 µg/mL | COMMERCIAL ASSAY cross reactivity ([1]; CDP-I 20 ug/mL): 55.20% | COMMERCIAL ASSAY VALUES ([1]; CDP-I 25 ug/mL): 12.94 µg/mL | COMMERCIAL ASSAY cross reactivity ([1]; CDP-I 25 ug/mL): 51.76% | COMMERCIAL ASSAY VALUES ([1]; CDP-I 50 ug/mL): 19.79 µg/mL | COMMERCIAL ASSAY cross reactivity ([1]; CDP-I 50 ug/mL): 39.58% | COMMERCIAL ASSAY [1, 4]: 39.99 µg/mL | COMMERCIAL ASSAY % C.R. [1, 4]: N.D. (Less than sensitivity at 2.00 ug/mL vancomycin) | COMMERCIAL ASSAY Diff/Sample-control [1, 4]: 1.05 µg/mL | COMMERCIAL ASSAY [1, 5]: 43.74 µg/mL | COMMERCIAL ASSAY % C.R. [1, 5]: 48% | COMMERCIAL ASSAY Diff/Sample-control [1, 5]: 4.80 µg/mL | COMMERCIAL ASSAY [1, 6]: 55.49 µg/mL | COMMERCIAL ASSAY % C.R. [1, 6]: 36.66% | COMMERCIAL ASSAY Diff/Sample-control [1, 6]: 18.33 µg/mL | COMMERCIAL ASSAY [1, 7]: 67.35 µg/mL | COMMERCIAL ASSAY % C.R. [1, 7]: 30.85% | COMMERCIAL ASSAY Diff/Sample-control [1, 7]: 30.85 µg/mL | COMMERCIAL ASSAY [1, 8]: 78.85 µg/mL | COMMERCIAL ASSAY % C.R. [1, 8]: N.D. (Less than sensitivity at 2.00 ug/mL vancomycin) | COMMERCIAL ASSAY Diff/Sample-control [1, 8]: -0.68 µg/mL | COMMERCIAL ASSAY [1, 9]: 83.34 µg/mL | COMMERCIAL ASSAY % C.R. [1, 9]: 38.1% | COMMERCIAL ASSAY Diff/Sample-control [1, 9]: 3.81 µg/mL | COMMERCIAL ASSAY % C.R. [1, 10]: HI ((>100)) | COMMERCIAL ASSAY Diff/Sample-control [1, 10]: HI ((>100)) | COMMERCIAL ASSAY ug/mL [1, 10]: HI ((>100)) | COMMERCIAL ASSAY % C.R. [1, 11]: HI ((>100)) | COMMERCIAL ASSAY Diff/Sample-control [1, 11]: HI ((>100)) | COMMERCIAL ASSAY ug/mL [1, 11]: HI ((>100)) | PRESENT INVENTION VALUES ([2]; CDP-I 1 ug/mL): 0.22 µg/mL | PRESENT INVENTION cross reactivity ([2]; CDP-I 1 ug/mL): N.D. (Less than sensitivity at 2.00 ug/mL vancomycin) | PRESENT INVENTION VALUES ([2]; CDP-I 2.5 ug/mL): 0.15 µg/mL | PRESENT INVENTION cross reactivity ([2]; CDP-I 2.5 ug/mL): N.D. (Less than sensitivity at 2.00 ug/mL vancomycin) | PRESENT INVENTION VALUES ([2]; CDP-I 5 ug/mL): 0.26 µg/mL | PRESENT INVENTION cross reactivity ([2]; CDP-I 5 ug/mL): N.D. (Less than sensitivity at 2.00 ug/mL vancomycin) | PRESENT INVENTION VALUES ([2]; CDP-I 7 ug/mL): LOW | PRESENT INVENTION cross reactivity ([2]; CDP-I 7 ug/mL): N.D. (Less than sensitivity at 2.00 ug/mL vancomycin) | PRESENT INVENTION VALUES ([2]; CDP-I 10 ug/mL): 0.13 µg/mL | PRESENT INVENTION cross reactivity ([2]; CDP-I 10 ug/mL): N.D. (Less than sensitivity at 2.00 ug/mL vancomycin) | PRESENT INVENTION VALUES ([2]; CDP-I 15 ug/mL): LOW | PRESENT INVENTION cross reactivity ([2]; CDP-I 15 ug/mL): N.D. (Less than sensitivity at 2.00 ug/mL vancomycin) | PRESENT INVENTION VALUES ([2]; CDP-I 20 ug/mL): 0.46 µg/mL | PRESENT INVENTION cross reactivity ([2]; CDP-I 20 ug/mL): N.D. (Less than sensitivity at 2.00 ug/mL vancomycin) | PRESENT INVENTION VALUES ([2]; CDP-I 25 ug/mL): 0.18 µg/mL | PRESENT INVENTION cross reactivity ([2]; CDP-I 25 ug/mL): N.D. (Less than sensitivity at 2.00 ug/mL vancomycin) | PRESENT INVENTION VALUES ([2]; CDP-I 50 ug/mL): 0.67 µg/mL | PRESENT INVENTION cross reactivity ([2]; CDP-I 50 ug/mL): N.D. (Less than sensitivity at 2.00 ug/mL vancomycin) | PRESENT INVENTION [2, 4]: 40.86 µg/mL | PRESENT INVENTION % C.R. [2, 4]: N.D. (Less than sensitivity at 2.00 ug/mL vancomycin) | PRESENT INVENTION Diff/Sample-Control [2, 4]: -0.20 µg/mL | PRESENT INVENTION [2, 5]: 40.50 µg/mL | PRESENT INVENTION % C.R. [2, 5]: N.D. (Less than sensitivity at 2.00 ug/mL vancomycin) | PRESENT INVENTION Diff/Sample-Control [2, 5]: -0.54 µg/mL | PRESENT INVENTION [2, 6]: 39.13 µg/mL | PRESENT INVENTION % C.R. [2, 6]: N.D. (Less than sensitivity at 2.00 ug/mL vancomycin) | PRESENT INVENTION Diff/Sample-Control [2, 6]: -0.14 µg/mL | PRESENT INVENTION [2, 7]: 37.22 µg/mL | PRESENT INVENTION % C.R. [2, 7]: N.D. (Less than sensitivity at 2.00 ug/mL vancomycin) | PRESENT INVENTION Diff/Sample-Control [2, 7]: 0.24 µg/mL | PRESENT INVENTION % C.R. [2, 8]: N.D. (Less than sensitivity at 2.00 ug/mL vancomycin) | PRESENT INVENTION Diff/Sample-Control [2, 8]: -0.64 µg/mL | PRESENT INVENTION [2, 9]: 79.49 µg/mL | PRESENT INVENTION % C.R. [2, 9]: N.D. (Less than sensitivity at 2.00 ug/mL vancomycin) | PRESENT INVENTION Diff/Sample-Control [2, 9]: -0.50 µg/mL | PRESENT INVENTION [2, 10]: 74.41 µg/mL | PRESENT INVENTION % C.R. [2, 10]: N.D. (Less than sensitivity at 2.00 ug/mL vancomycin) | PRESENT INVENTION Diff/Sample-Control [2, 10]: -0.83 µg/mL | PRESENT INVENTION [2, 11]: 71.22 µg/mL | PRESENT INVENTION % C.R. [2, 11]: N.D. (Less than sensitivity at 2.00 ug/mL vancomycin) | PRESENT INVENTION Diff/Sample-Control [2, 11]: -0.26 µg/mL | cross-reactivity ([2]; vancomycin 0, 40, 80 μg/mL, cross reactants 0, 1, 10, 50, 100 μg/mL): less than 2%

CN[C@H](CC(C)C)C(=O)N[C@H]1C(=O)N[C@@H](CC(N)=O)C(=O)N[C@H]2C(=O)N[C@H]3C(=O)N[C@H](C(=O)N[C@H](C(=O)O)c4cc(O)cc(O)c4-c4cc3ccc4O)[C@H](O)c3ccc(c(Cl)c3)Oc3cc2cc(c3O[C@@H]2O[C@H](CO)[C@@H](O)[C@H](O)[C@H]2O)Oc2ccc(cc2Cl)[C@H]1O [compound 5, Desvancosaminylvancomycin]
Kd [3]: 587 ± 27 nM
